# The supplement of paper PMC5579334
# ± gives the standard deviation of the averaged measurements.
# Key:
# [1] = tested on: HSC1 (primary human Schwann cells); test: drug sensitivity score (DSS, CellTiter-Glo viability, 72 h) (DSS (dimensionless)); higher = more sensitive; extreme values may be limits of the assay
# Outline: (§1)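 After seeding 750–1000 cells per well of MPNST cell lines or primary human Schwann cells into 384-well plates preprinted with each compound at five concentrations in 10-fold steps, plates were kept 72 h at 37 °C, 5% CO2. Viability was read as CellTiter-Glo ATP luminescence relative to vehicle and positive-control wells, with duplicates averaged where present. The data were fitted with four-parameter logistic models. Drug sensitivity score and relative IC50, censored at the top concentration, derive from the fits, and percent inhibition refers to the top concentration.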
# [2] = tested on: HSC2 (primary human Schwann cells); test: as above
# Outline: as §1
# S1507-2 [3] = test: as above
# Outline: as §1
# S462 [4] = test: as above
# Outline: as §1
# ST8814 [5] = test: as above
# Outline: as §1
# STS26T [6] = test: as above
# Outline: as §1
# [7] = tested on: HSC1 (primary human Schwann cells); test: drug sensitivity score (DSS, CellTox-Green cytotoxicity, 72 h) (DSS (dimensionless)); higher = more cytotoxic; extreme values may be limits of the assay
# Outline: (§2)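 For 72 h at 37 °C, MPNST cell lines and primary human Schwann cells were exposed in 384-well plates to five 10-fold compound dilutions. CellTox-Green, added before seeding at a final 1:1000 dilution, gave fluorescence from DNA released by disrupted cells. Signals were scaled to vehicle and positive-control wells, cultures failing plate quality control were left out, and four-parameter logistic fits were applied. Relative IC50 and drug sensitivity score were derived from the fits, with IC50 censored at the top concentration.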
# [8] = tested on: HSC2 (primary human Schwann cells); test: as above
# Outline: as §2
# S1507-2 [9] = test: as above
# Outline: as §2
# ST8814 [10] = test: as above
# Outline: as §2
# STS26T [11] = test: as above
# Outline: as §2
# [12] = tested on: HSC1 (primary human Schwann cells); test: % inhibition of CellTiter-Glo viability at highest tested concentration (72 h), relative to DMSO and benzethonium chloride controls; higher = more inhibition
# Outline: as §1
# [13] = tested on: HSC2 (primary human Schwann cells); test: as above
# Outline: as §1
# S1507-2 [14] = test: as above
# Outline: as §1
# S462 [15] = test: as above
# Outline: as §1
# ST8814 [16] = test: as above
# Outline: as §1
# STS26T [17] = test: as above
# Outline: as §1
SMILES,drug sensitivity score [1],drug sensitivity score [2],drug sensitivity score (S1507-2 [3]),drug sensitivity score (S462 [4]),drug sensitivity score (ST8814 [5]),drug sensitivity score (STS26T [6]),drug sensitivity score [7],drug sensitivity score [8],drug sensitivity score (S1507-2 [9]),drug sensitivity score (ST8814 [10]),drug sensitivity score (STS26T [11]),% inhibition [12] [%],% inhibition [13] [%],% inhibition (S1507-2 [14]) [%],% inhibition (S462 [15]) [%],% inhibition (ST8814 [16]) [%],% inhibition (STS26T [17]) [%]
C[C@H]1C=C2C(=O)O[C@H]3CC[C@@H](C1)[C@@]23O [Galiellalactone] (max concentration tested 50000 nM),11.2,7.95,7.75 ± 0.57,9.23 ± 1.4,7.08,9.38,0.367,0,2.69 ± 1.4,0,2.26,97.6,98.5,92.8 ± 14,100 ± 2.5,88.9,101
COC1=C2C[C@@H](C)C[C@H](OC)[C@H](O)[C@@H](C)/C=C(\C)[C@H](OC(N)=O)[C@@H](OC)/C=C\C=C(/C)C(=O)NC(=CC1=O)C2=O [Geldanamycin] (max concentration tested 10000 nM),16.7,16.7,8.65 ± 0.52,15.8 ± 0.19,12,12.3,20.4,20.2,5.24 ± 1.8,2.65,8.09,96.7,94.7,97.21 ± 0.53,98.4 ± 1.8,90.6,94.2
Nc1cccc2c1CN(C1CCC(=O)NC1=O)C2=O (stereo not drawn) [Lenalidomide] (max concentration tested 10000 nM),0.47,0.0019,1.35 ± 1.9,0,0,0,0,2.65,0,0,0,9.28,11,10.8 ± 9.4,2.04 ± 9.8,3.01,0.527
Cn1cnc2c(F)c(Nc3ccc(Br)cc3F)c(C(=O)NOCCO)cc21 [MEK-162] (max concentration tested 1000 nM),0.0621,0,1.31 ± 1.3,2.73 ± 0.038,1.66,2.04,0,0,0,0,0,15.1,-2.17,19.9 ± 8.2,29.8 ± 0.71,23.8,24.5
NC(=O)c1cccc2cn(-c3ccc(C4CCCNC4)cc3)nc12 (stereo not drawn) [MK-4827] (max concentration tested 10000 nM),2.86,1.47,5.09 ± 0.48,8.55 ± 0.22,8.12,6.01,0,0,0.763 ± 1.1,4.56,0.673,40,23.4,57.5 ± 6.1,86.1 ± 3,89.5,67.6
CC(=O)O[C@]1(C(C)=O)CC[C@H]2[C@@H]3C=C(C)C4=CC(=O)CC[C@]4(C)[C@H]3CC[C@@]21C [Megestrol] (max concentration tested 10000 nM),0,0,0,0,0,0,0,0,0,0,0,9.41,8.15,-2.04 ± 5.3,2.52 ± 6.2,4.75,1.5
N[C@@H](Cc1ccc(N(CCCl)CCCl)cc1)C(=O)O [Melphalan aq] (max concentration tested 12500 nM),0.445,0,0,0,0,0,0,0,0,0,0,18.7,6.78,6.15 ± 8.2,5.6 ± 3,3.22,2.1
CCN(CC)CCCC(C)Nc1c2ccc(Cl)cc2nc2ccc(OC)cc12 (stereo not drawn) [Mepacrine aq] (max concentration tested 50000 nM),18.6,18,19.92 ± 0.17,20.5 ± 1.6,20.5,18.9,20.7,19.6,23.5 ± 4.6,14.7,15.8,95.9,95,98.51 ± 0.17,95.06 ± 0.61,96.3,96.5
CN(C)C(=N)NC(=N)N [Metformin aq] (max concentration tested 100000 nM),0,0,0,0,0,0,0,0,0.0766 ± 0.11,0,0,-13.1,-15.5,6.36 ± 5.3,1.42 ± 6.1,7.41,5.16
